Literature values in US20050026902A1, “Methods and compositions for the treatment or prevention of human immunodeficiency virus and related conditions using cyclooxygenase-2 selective inhibitors and antiviral agents” (priority 2003, published 2005).
Where two headings read alike, the source gives them in different places.

What was measured:
[1] = human, in vivo, po
[2] = human, in vivo, po; remark: listed apart in the source
[3] = human, in vivo
[4] = biological target: HIV-1 RT from the HxB2 clone (RT-SHIV) (Human immunodeficiency virus type 1 group M subtype B, UniProt P04585); conditions: in vitro tests
RT-SHIV = conditions: in vitro tests

| Food Effect [1] | Food Effect [2] | Food Effect [3] | Structure (SMILES) | other results |
| --- | --- | --- | --- | --- |
| None |  |  | Cc1cn([C@H]2C=C[C@@H](CO)O2)c(=O)[nH]c1=O [Stavudine] |  |
| None |  |  | Nc1ccn([C@H]2CC[C@@H](CO)O2)c(=O)n1 [Zalcitabine] |  |
| None |  |  | Cc1cn([C@H]2C[C@H](N=[N+]=[N-])[C@@H](CO)O2)c(=O)[nH]c1=O [Zidovudine] |  |

Second part, the molecule before the results:

| Structure (SMILES) | Food Effect [1] | Food Effect [2] | Food Effect [3] | other results |
| --- | --- | --- | --- | --- |
| Nc1nc(NC2CC2)c2ncn([C@H]3C=C[C@@H](CO)C3)c2n1 [Abacavir] | None |  |  |  |
| CC(C)CN(C[C@@H](O)[C@H](Cc1ccccc1)NC(=O)O[C@H]1CCOC1)S(=O)(=O)c1ccc(N)cc1 [Amprenavir] |  | Avoid taking |  |  |
| CC(C)Nc1cccnc1N1CCN(C(=O)c2cc3cc(NS(C)(=O)=O)ccc3[nH]2)CC1 [Delavirdine] |  |  | None |  |
| O=C1Nc2ccc(Cl)cc2[C@@](C#CC2CC2)(C(F)(F)F)O1 [Efavirenz] |  |  | Avoid taking |  |
| Cc1c(O)cccc1C(=O)N[C@@H](CSc1ccccc1)[C@H](O)CN1C[C@H]2CCCC[C@H]2C[C@H]1C(=O)NC(C)(C)C [Nelfinavir, nelfinavir] |  | Take with food if possible |  |  |
| Cc1ccnc2c1NC(=O)c1cccnc1N2C1CC1 [Nevirapine, nevirapine] |  |  | None | inhibition of the RT activity of RT-SHIV [4]: could inhibit; inhibition of replication of RT-SHIV (RT-SHIV): could inhibit |
| CC(C)c1nc(CN(C)C(=O)N[C@H](C(=O)N[C@@H](Cc2ccccc2)C[C@H](O)[C@H](Cc2ccccc2)NC(=O)OCc2cncs2)C(C)C)cs1 [Ritonavir, ritonavir] |  | Take with food if possible |  |  |
